According to publication PMC9331314, “Synthesis and Antiviral Properties of Camphor-Derived Iminothiazolidine-4-Ones and 2,3-Dihydrothiazoles” (Molecules, 2022):
Like-named read-outs stand apart in the source and are kept apart here.

Legend:
[1] = test system: vaccinia virus (strain Copenhagen)
[2] = test system: Marburg pseudovirus (GP MARV)
[3] = in vitro; conditions: African green monkey
[4] = in vitro; conditions: human
[5] = test system: vaccinia virus (strain Copenhagen); test: microbe, parasite or virus in culture; conditions: Orthopoxvirus vaccinia, Vero, 96 h
[6] = test system: Marburg pseudovirus (GP MARV); test: microbe, parasite or virus in culture; conditions: 24 h

SMILES	SI (CC50/IC50) [1]	SI (CC50/IC50) [2]	CC50 [3] [µM]	CC50 [4] [µM]	IC50 [5] [µM]	IC50 [6] [µM]	IC50 [2] [µM]
CCn1c(-c2ccc(Cl)cc2)cs/c1=N/N=C1\C[C@H]2CC[C@]1(C)C2(C)C [Compound 5c, (E)-4-(4-chlorophenyl)-3-ethyl-2-((E)-((1R,4R)-1,7,7-trimethylbicyclo[2.2.1]heptan-2-ylidene)hydrazono)-2,3-dihydrothiazole]	6	2	70 ± 8.9	51.6 ± 15.5	12 ± 1.5	25.8 ± 5.2	
Cc1ccc(-c2cs/c(=N/N=C3\C[C@H]4CC[C@]3(C)C4(C)C)n2-c2ccccc2)cc1 [Compound 6a, (E)-3-phenyl-4-p-tolyl-2-((E)-((1R,4R)-1,7,7-trimethylbicyclo[2.2.1]heptan-2-ylidene)hydrazono)-2,3-dihydrothiazole]		2	98 ± 11.6	135 ± 19.2		60.2 ± 14.4	
C=CCn1c(-c2ccc(C)cc2)cs/c1=N/N=C1\C[C@H]2CC[C@]1(C)C2(C)C [Compound 6b, (E)-3-allyl-4-p-tolyl-2-((E)-((1R,4R)-1,7,7-trimethylbicyclo[2.2.1]heptan-2-ylidene)hydrazono)-2,3-dihydrothiazole]	3	7	12 ± 2.1	39.5 ± 4.8	4 ± 0.6	5.3 ± 2.6	
CCn1c(-c2ccc(C)cc2)cs/c1=N/N=C1\C[C@H]2CC[C@]1(C)C2(C)C [Compound 6c, (E)-3-ethyl-4-p-tolyl-2-((E)-((1R,4R)-1,7,7-trimethylbicyclo[2.2.1]heptan-2-ylidene)hydrazono)-2,3-dihydrothiazole]			15 ± 2.9				
Cc1ccc(-c2cs/c(=N/N=C3\C[C@H]4CC[C@]3(C)C4(C)C)n2C)cc1 [Compound 6d, (E)-3-methyl-4-p-tolyl-2-((E)-((1R,4R)-1,7,7-trimethylbicyclo[2.2.1]heptan-2-ylidene)hydrazono)-2,3-dihydrothiazole]	3	3	17 ± 3.1	79.2 ± 8.5	5.1 ± 0.7	28.3 ± 8.5	
COc1ccc(-c2cs/c(=N/N=C3\C[C@H]4CC[C@]3(C)C4(C)C)n2-c2ccccc2)cc1 [Compound 7a, (E)-4-(4-methoxyphenyl)-3-phenyl-2-((E)-((1R,4R)-1,7,7-trimethylbicyclo[2.2.1]heptan-2-ylidene)hydrazono)-2,3-dihydrothiazole]		8	232 ± 29.6	973 ± 61.6		127 ± 23.2	
C=CCn1c(-c2ccc(OC)cc2)cs/c1=N/N=C1\C[C@H]2CC[C@]1(C)C2(C)C [Compound 7b, (E)-3-allyl-4-(4-methoxyphenyl)-2-((E)-((1R,4R)-1,7,7-trimethylbicyclo[2.2.1]heptan-2-ylidene)hydrazono)-2,3-dihydrothiazole]		3	200 ± 23.1	37.9 ± 8.3		13.9 ± 2.5	
CCn1c(-c2ccc(OC)cc2)cs/c1=N/N=C1\C[C@H]2CC[C@]1(C)C2(C)C [Compound 7c, (E)-3-ethyl-4-(4-methoxyphenyl)-2-((E)-((1R,4R)-1,7,7-trimethylbicyclo[2.2.1]heptan-2-ylidene)hydrazono)-2,3-dihydrothiazole]		9		117 ± 10.4		13 ± 5.2	
COc1ccc(-c2cs/c(=N/N=C3\C[C@H]4CC[C@]3(C)C4(C)C)n2C)cc1 [Compound 7d, (E)-4-(4-methoxyphenyl)-3-methyl-2-((E)-((1R,4R)-1,7,7-trimethylbicyclo[2.2.1]heptan-2-ylidene)hydrazono)-2,3-dihydrothiazole]		4		97.4 ± 21.6			27.1 ± 8.1
CC1(C)[C@@H]2CC[C@@]1(C)/C(=N/N=c1/scc(-c3ccccc3)n1-c1ccccc1)C2 [Compound 8a, (E)-3,4-diphenyl-2-((E)-((1R,4R)-1,7,7-trimethylbicyclo[2.2.1]heptan-2-ylidene)hydrazono)-2,3-dihydrothiazole]	7	3	122 ± 14.7	89.6 ± 19.9	18 ± 1.9	29.9 ± 5	
C=CCn1c(-c2ccccc2)cs/c1=N/N=C1\C[C@H]2CC[C@]1(C)C2(C)C [Compound 8b, (E)-3-allyl-4-phenyl-2-((E)-((1R,4R)-1,7,7-trimethylbicyclo[2.2.1]heptan-2-ylidene)hydrazono)-2,3-dihydrothiazole]	6	<2	17 ± 2.9	< 41	3 ± 0.4	19.2 ± 2.7	
CCn1c(-c2ccccc2)cs/c1=N/N=C1\C[C@H]2CC[C@]1(C)C2(C)C [Compound 8c, (E)-3-ethyl-4-phenyl-2-((E)-((1R,4R)-1,7,7-trimethylbicyclo[2.2.1]heptan-2-ylidene)hydrazono)-2,3-dihydrothiazole]	6	<2	17 ± 3.3	< 42.4	3 ± 0.5	28.3 ± 2.8	
CN[C@H]1CC[C@@H](c2ccc(Cl)c(Cl)c2)c2ccccc21 [Sertraline, reference compound]				408 ± 35.9			
